Results from patent US20250041278A1, “TLR8 AGONIST FOR MODULATING IMMUNE RESPONSE” (The Children's Medical Center Corporation, priority 2021, published 2025).
Like-named read-outs stand apart in the source and are kept apart here.

Key:
human (h)TLR8 = target: T1, human (h)TLR8 (Homo sapiens, UniProt Q9NR97); assay: PRR ligand screening (InvivoGen) in reporter cell lines; format: cell-based; details: HEK reporter cells; % activity vs positive control
T1 construct: host or cells: HEK-293 reporter cells
T1 sequence (Q9NR97 27-1041): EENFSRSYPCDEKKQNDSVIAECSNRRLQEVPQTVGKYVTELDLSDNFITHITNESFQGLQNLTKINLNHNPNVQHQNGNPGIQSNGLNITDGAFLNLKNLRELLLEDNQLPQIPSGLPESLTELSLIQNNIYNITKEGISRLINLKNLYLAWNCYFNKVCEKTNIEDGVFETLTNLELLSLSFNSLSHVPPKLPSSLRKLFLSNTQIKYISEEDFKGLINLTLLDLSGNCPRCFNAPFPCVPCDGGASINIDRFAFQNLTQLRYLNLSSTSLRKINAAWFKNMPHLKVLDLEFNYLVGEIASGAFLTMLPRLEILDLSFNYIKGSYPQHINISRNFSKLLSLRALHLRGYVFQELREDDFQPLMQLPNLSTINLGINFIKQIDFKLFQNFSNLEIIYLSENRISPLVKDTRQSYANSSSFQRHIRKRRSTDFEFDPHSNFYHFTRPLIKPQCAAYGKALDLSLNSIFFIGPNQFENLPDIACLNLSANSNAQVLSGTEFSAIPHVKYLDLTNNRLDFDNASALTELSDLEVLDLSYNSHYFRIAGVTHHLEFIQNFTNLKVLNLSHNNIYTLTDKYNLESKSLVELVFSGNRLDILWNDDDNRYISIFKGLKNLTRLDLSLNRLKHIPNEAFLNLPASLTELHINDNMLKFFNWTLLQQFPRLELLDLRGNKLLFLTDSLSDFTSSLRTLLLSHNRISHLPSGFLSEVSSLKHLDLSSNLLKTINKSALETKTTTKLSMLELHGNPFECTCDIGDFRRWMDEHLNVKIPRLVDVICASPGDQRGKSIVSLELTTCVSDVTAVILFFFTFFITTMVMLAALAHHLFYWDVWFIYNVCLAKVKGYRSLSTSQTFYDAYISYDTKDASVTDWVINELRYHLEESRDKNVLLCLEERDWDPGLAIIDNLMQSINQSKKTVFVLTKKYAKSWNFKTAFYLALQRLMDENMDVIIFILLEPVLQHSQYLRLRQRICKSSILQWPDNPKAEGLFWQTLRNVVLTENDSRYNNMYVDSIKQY
Experimental: (§1) FIGS. 3A-3E. PVP-179 is a TLR8 agonist. FIG. 3A: PVP-179 was sent to InvivoGen for PRR ligand screening service. Various cells lines were utilized to screen for PVP-179-induced ([…]) activation of TLRs, NOD1/2, RIG-I/MDA-5, Dectin-1 or Mincle receptor. The heat-map depicts percentage activity compared to the positive control for each receptor. FIG. 3B: PVP-179 induced activity (% activity compared to the positive control: CL075 at 1 μg/mL) in HEK-293 cells specifically expressing hTLR8. In brief, these cells have an NF-κB/AP-1-inducible secreted embryonic alkaline phosphatase (SEAP) reporter gene which allows monitoring of signaling via TLR8. After incubation for 16-24 hours, supernatant harvested from the cells is mixed with media containing SEAP-substrate and the optical density (OD) is measured at 650 nm using a spectrophotometer. FIG. 3C: As in FIG. 3B, HEK cells specifically expressing hTLR2, hTLR7, or hTLR8, in addition to the HEK-Null cell line carrying only the reporter gene, were stimulated with the indicated concentrations of PVP-179. […] PVP-179 activity is expressed as a percentage of NF-κB induced in the cells stimulated with TNF (positive control for each cell line). […] The supernatants were harvested after 20-24 hours and SEAP production (to assess NF-κB activity) was measured using QUANTIBlue assay. […]

[1] = system: human adult and elderly PBMCs; assay: 14-multiplex cytokine assay in PBMC supernatants; format: cell-based
Description: (§2) FIGS. 1A-1D. Discovery of PVP-179 in a human PBMC high-throughput screen. FIG. 1A: A graphical overview depicting screen approach. From a high-throughput screen previously conducted, 310 molecules were identified to be activators of either THP-1 cells (monocyte cell line) or primary human adult peripheral blood mononuclear cells (PBMCs). These 310 molecules were assembled into a stimulation plate and then applied to the PBMCs of 4 elderly donors (cultured with 10% autologous plasma). […] Z scores were averaged across all four elderly donors. The Z score and chemical structure for PVP-179 are indicated. FIG. 1C: Human adult or elderly PBMCs (cultured with 10% autologous plasma) were stimulated with PVP-179 in a two-point concentration titration manner. After 18 hours of incubation, supernatant was processed for ELISA-based measurement of TNF production. N=4 donors. FIG. 1D: As in FIG. 1C, the supernatants were collected, and 14 cytokines were measured by multiplex assay. […] N=4 donors each.
The activity of PVP-179 was confirmed in a 96-well format in both human adult and elderly PBMCs.

null HEK cells = assay: HEK-Null reporter cell line (reporter gene only); format: cell-based, human; details: negative control cells, even at higher concentrations
Experimental: as §1

[2] = system: Balb/c murine model of SARS-CoV-2 immunization; format: in vivo, BALB/c mice; details: for rSpike immunogenicity: prime Day 0, boost Day 14
human elderly PBMCs = assay: Screen of 310 molecules for TNF production by human elderly PBMCs; format: cell-based; details: elderly PBMCs of 4 donors, 10% autologous plasma
Description: as §2
In a previous high throughput screen (HTS), a number of hit molecules were identified as potentially activating human leukocytes. […] A separate pilot screen of 9,000 of the molecules for TNF-inducing activity in adult human peripheral blood mononuclear cells (PBMCs) subsequently identified 133 molecules. […]

SMILES: CCCCn1c(/N=C/c2nc3ccccc3n2C)nc2ccccc21 [PVP-179]
- activity among all TLRs and other receptors tested (human (h)TLR8): maximal activity toward human (h)TLR8
- innate immune response (cytokine responses), elder vs younger adult leukocytes ([1]; 14-multiplex assay): greater innate immune response in elder leukocytes than in younger adult controls
- proinflammatory cytokine and chemokine induction (TNF, IL-6, IL-8, IL-10, IL-12 p40, IL-12 p70, IP-10, CCL5, CCL3, MCP1, GM-CSF, IFN-γ, IFN-α2, IL1-β) ([1]; similarly to R848 at 25 μM): titration-dependent concentration of proinflammatory cytokines
- NF-κB activity in null HEK cells (null HEK cells): no activity was detected
- adjuvant activity ([2]; adult mice): adjuvant activity
- rSpike immunogenicity ([2]; adult mice (12 weeks)): enhanced rSpike immunogenicity
- antibody subtype enhanced ([2]; aged mice): primarily enhanced the production of anti-rSpike IgG1 subtype antibodies
- rSpike immunogenicity ([2]; aged mice (52 weeks/12 months old)): enhanced rSpike immunogenicity
- antibody titers compared to rSpike alone ([2]; aged mice, Day 28 serum): 2-5 fold
- TNF production, screen hit call (human elderly PBMCs): robust TNF-inducing hit
